From ChEMBL document CHEMBL1201862, “PubChem BioAssay data set” (2004)
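Each compound was tested at five concentrations against cells in 96-well plates for 48 hours. Abbreviation: GI50, concentration required for 50% inhibition of growth.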 The source made the active and inactive calls. Cut-off read from the data, not from the text of the source: active = GI50 up to about 1.1 µM and inactive = higher.

Experiments:
Test in all cases: NCI-60 cell line screen, 48 h
[1] = test system: COLO 205
[2] = test system: MCF7
[3] = test system: OVCAR-4
[4] = test system: Malme-3M
[5] = test system: OVCAR-3
[6] = test system: A549
[7] = test system: U-251
[8] = test system: MDA-MB-231
[9] = test system: SW-620
[10] = test system: SF-539
[11] = test system: SK-MEL-2
[12] = test system: KM12
[13] = test system: MDA-MB-435
[14] = test system: PC-3
[15] = test system: DU-145
[16] = test system: HCT-116
[17] = test system: HT-29
[18] = test system: UACC-62
[19] = test system: CAKI-1

| Structure (SMILES) | GI50 [1] | GI50 [2] | GI50 [3] | GI50 [4] | GI50 [5] | GI50 [6] | GI50 [7] | GI50 [8] | GI50 [9] | GI50 [10] | GI50 [11] | GI50 [12] | GI50 [13] | GI50 [14] | GI50 [15] | GI50 [16] | GI50 [17] | GI50 [18] | GI50 [19] |
| --- | --- | --- | --- | --- | --- | --- | --- | --- | --- | --- | --- | --- | --- | --- | --- | --- | --- | --- | --- |
| N#Cc1ccc(/C=N/NC(=O)CSCC(=O)N/N=C/c2ccc(C#N)cc2)cc1 | > 100 µM (inactive) | > 100 µM (inactive) | > 100 µM (inactive) | > 100 µM (inactive) | > 100 µM (inactive) | > 100 µM (inactive) | 48.1 µM (inactive) | 29.1 µM (inactive) | > 100 µM (inactive) | > 100 µM (inactive) | > 100 µM (inactive) | > 100 µM (inactive) | > 100 µM (inactive) | > 100 µM (inactive) | > 100 µM (inactive) | > 100 µM (inactive) | > 100 µM (inactive) | > 100 µM (inactive) | > 100 µM (inactive) |
| CN(CCSCCN(C)C(=O)OC(C)(C)C)C(=O)OC(C)(C)C | > 100 µM (inactive) | > 100 µM (inactive) | > 100 µM (inactive) | > 100 µM (inactive) | > 100 µM (inactive) | > 100 µM (inactive) | > 100 µM (inactive) | > 100 µM (inactive) | > 100 µM (inactive) | > 100 µM (inactive) | > 100 µM (inactive) | > 100 µM (inactive) | > 100 µM (inactive) | > 100 µM (inactive) | > 100 µM (inactive) | > 100 µM (inactive) | > 100 µM (inactive) | > 100 µM (inactive) | > 100 µM (inactive) |
| COc1cc2c(/C=C3/C(=O)Nc4ccc(Cl)cc43)c(Cl)[nH]c2cc1C | 0.352 µM (active) | 0.489 µM (active) | 0.818 µM (active) | 0.82 µM (active) | 0.356 µM (active) | 0.711 µM (active) | 0.394 µM (active) | 0.74 µM (active) | 0.596 µM (active) | 0.232 µM (active) | 0.966 µM (active) | 0.416 µM (active) | 0.201 µM (active) | 0.505 µM (active) | 1.36 µM (inactive) | 0.794 µM (active) | 0.544 µM (active) | 0.288 µM (active) | 0.39 µM (active) |
| COC(=O)C1CN=CN1CCc1ccccc1 (configuration not stated) | > 100 µM (inactive) | > 100 µM (inactive) | > 100 µM (inactive) | > 100 µM (inactive) | > 100 µM (inactive) | > 100 µM (inactive) | > 100 µM (inactive) | > 100 µM (inactive) | > 100 µM (inactive) | > 100 µM (inactive) | > 100 µM (inactive) | > 100 µM (inactive) | > 100 µM (inactive) | > 100 µM (inactive) | > 100 µM (inactive) | > 100 µM (inactive) | > 100 µM (inactive) | > 100 µM (inactive) | > 100 µM (inactive) |
| Cc1c(O)nc(/C=C/C(=O)O)nc1C(=O)O | > 100 µM (inactive) | > 100 µM (inactive) | > 100 µM (inactive) | > 100 µM (inactive) | > 100 µM (inactive) | > 100 µM (inactive) | > 100 µM (inactive) | > 100 µM (inactive) | > 100 µM (inactive) | > 100 µM (inactive) | > 100 µM (inactive) | > 100 µM (inactive) | > 100 µM (inactive) | > 100 µM (inactive) | > 100 µM (inactive) | > 100 µM (inactive) | > 100 µM (inactive) | > 100 µM (inactive) | > 100 µM (inactive) |
| O=C(Cc1ccccc1F)NC1=C(Cl)C(=O)c2ccccc2C1=O | 3.23 µM (inactive) | 3.74 µM (inactive) | 0.659 µM (active) | 1.35 µM (inactive) | 0.621 µM (active) | 2.51 µM (inactive) | 0.65 µM (active) | 2.69 µM (inactive) | 0.721 µM (active) | 0.333 µM (active) | 0.652 µM (active) | 0.524 µM (active) | 2.77 µM (inactive) | 1.25 µM (inactive) | 10.1 µM (inactive) | 0.459 µM (active) | 5.75 µM (inactive) | 0.481 µM (active) | 2.79 µM (inactive) |
| COc1ccc(-c2cc(=O)c3ccc(O)cc3o2)cc1OC | 68.4 µM (inactive) | 25.8 µM (inactive) | 24.7 µM (inactive) | 67.1 µM (inactive) | 57.3 µM (inactive) | 38.5 µM (inactive) | 43.9 µM (inactive) | 77.4 µM (inactive) | 37.8 µM (inactive) | 23.4 µM (inactive) | > 100 µM (inactive) | 59.3 µM (inactive) | 45.5 µM (inactive) | 32.3 µM (inactive) | 48 µM (inactive) | 30.2 µM (inactive) | 41.8 µM (inactive) | 33.8 µM (inactive) | 25.7 µM (inactive) |
| CCN(CC)C(=S)SS(=O)(=O)c1ccccc1C(=O)O | > 100 µM (inactive) | 1.03 µM (active) | > 100 µM (inactive) | > 96.4 µM (inactive) | > 100 µM (inactive) | 10.8 µM (inactive) | 99.8 µM (inactive) | > 100 µM (inactive) | > 100 µM (inactive) | > 100 µM (inactive) | > 100 µM (inactive) | > 100 µM (inactive) | > 100 µM (inactive) | > 100 µM (inactive) | > 100 µM (inactive) | > 96.6 µM (inactive) | > 100 µM (inactive) | 66.4 µM (inactive) | > 78 µM (inactive) |
